Measured values taken from the NIST ThermoML archive (doi:10.1021/je300827f).
± gives the expanded uncertainty stated by the source.

Experiment: xn = mol fraction of the nth substance listed
Conditions: 101 kPa, Liquid, x2 = 0; for viscosity: Capillary tube (Ostwald / Ubbelohde) method; for mass density: Vibrating tube method

CC(C)O [propan-2-ol] + OCCOCCO
Conditions	mass density [kg/m3]	viscosity [mPa·s]
298.15 K	781.1 ± 0.2	2.06 ± 0.08
303.15 K	776.7 ± 0.2	1.79 ± 0.07
308.15 K	771.8 ± 0.2	1.56 ± 0.06
313.15 K	767.4 ± 0.2	1.38 ± 0.06
